Assay results from US12421210B2, “Fused bicyclic heterocycles as therapeutic agents” (NEW YORK UNIVERSITY, priority 2018, dated 2025).

Each molecule was assayed against human NAMPT enzyme (His-hNAMPT) (Homo sapiens (Human), UniProt P43490) (assay: NAMPT enzymatic inhibition assay (fluorescence, NADH product)). Settings: [BPS]; read-out: NAMPT IC50 (μM) [BPS].
Type: biochemical

Sequence of human NAMPT enzyme (His-hNAMPT) (P43490 whole entry): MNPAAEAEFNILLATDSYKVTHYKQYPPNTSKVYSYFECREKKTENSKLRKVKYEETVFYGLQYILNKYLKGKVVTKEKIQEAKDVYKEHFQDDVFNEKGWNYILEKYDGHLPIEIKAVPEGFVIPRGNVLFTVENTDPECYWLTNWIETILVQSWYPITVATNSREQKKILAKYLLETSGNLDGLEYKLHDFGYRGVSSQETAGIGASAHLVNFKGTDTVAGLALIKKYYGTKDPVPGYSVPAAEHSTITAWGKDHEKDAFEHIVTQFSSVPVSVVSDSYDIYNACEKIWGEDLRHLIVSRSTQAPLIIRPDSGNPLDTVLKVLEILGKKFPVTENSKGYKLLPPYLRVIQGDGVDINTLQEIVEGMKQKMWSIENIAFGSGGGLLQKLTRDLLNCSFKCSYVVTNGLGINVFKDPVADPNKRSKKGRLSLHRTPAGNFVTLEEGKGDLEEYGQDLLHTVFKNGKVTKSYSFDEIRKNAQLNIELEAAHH

Compound | IC50
CC1(OC(=O)N2C[C@@H]3[C@@H](CCNC(=O)c4ccc5nccn5c4)[C@@H]3C2)COC1 [Example 38, (1R,5S,6s)-3-methyloxetan-3-yl 6-(2-(imidazo[1,2-a]pyridine-6-carboxamido)ethyl)-3-azabicyclo[3.1.0]hexane-3-carboxylate] | 0.01 to 0.49 µM
O=C(NCC[C@@H]1[C@H]2CN(C(=O)c3ccccc3)C[C@@H]12)c1ccc2nccn2c1 [Example 63, N-(2-((1R,5S,6s)-3-benzoyl-3-azabicyclo[3.1.0]hexan-6-yl)ethyl)imidazo[1,2-a]pyridine-6-carboxamide] | 0.01 to 0.49 µM
Cc1nc(C)c(C(=O)N2C[C@@H]3[C@@H](CCNC(=O)c4cc5ccncc5o4)[C@@H]3C2)o1 [Example 98, N-(2-((1R,5S,6s)-3-(2,4-dimethyloxazole-5-carbonyl)-3-azabicyclo[3.1.0]hexan-6-yl)ethyl)furo[2,3-c]pyridine-2-carboxamide] | 0.01 to 0.49 µM
CN1CCC(c2ccc(C(=O)N3C[C@@H]4[C@@H](CCNC(=O)/C=C/c5ccc(N)nc5)[C@@H]4C3)cc2)CC1 [Example 93, (E)-3-(6-aminopyridin-3-yl)-N-(2-((1R,5S,6s)-3-(4-(1-methylpiperidin-4-yl)benzoyl)-3-azabicyclo[3.1.0]hexan-6-yl)ethyl)acrylamide] | 0.01 to 0.49 µM
Cc1cccc(C)c1N1C[C@@H]2[C@@H](CCNC(=O)/C=C/c3cccnc3)[C@@H]2C1 [Example 133, (E)-N-(2-((1R,5S,6s)-3-(2,6-dimethylphenyl)-3-azabicyclo[3.1.0]hexan-6-yl)ethyl)-3-(pyridin-3-yl)acrylamide] | 0.01 to 0.49 µM
CC(C)(C)CNC(=O)N1C[C@@H]2[C@@H](CCNC(=O)/C=C/c3ccc(N)nc3)[C@@H]2C1 [Example 96, (1R,5S,6s)-6-(2-((E)-3-(6-aminopyridin-3-yl)acrylamido)ethyl)-N-neopentyl-3-azabicyclo[3.1.0]hexane-3-carboxamide] | 0.01 to 0.49 µM
CC(C)(C)OC(=O)N1C[C@@H]2[C@H](C1)[C@H]2CC1(NC(=O)/C=C/c2ccc(N)nc2)CC1 [Example 241, (1R,5S,6s)-tert-butyl 6-((1-((E)-3-(6-aminopyridin-3-yl)acrylamido)cyclopropyl)methyl)-3-azabicyclo[3.1.0]hexane-3-carboxylate] | 1 to 29 µM
Cc1nn(C)c(C)c1C(=O)N1C[C@@H]2[C@@H](CCNC(=O)/C=C/c3ccc(N)nc3)[C@@H]2C1 [Example 88, (E)-3-(6-aminopyridin-3-yl)-N-(2-((1R,5S,6s)-3-(1,3,5-trimethyl-1H-pyrazole-4-carbonyl)-3-azabicyclo[3.1.0]hexan-6-yl)ethyl)acrylamide] | 0.01 to 0.49 µM
Nc1ccc(/C=C/C(=O)NCC[C@@H]2[C@H]3CN(c4cccc5ccccc45)C[C@@H]23)cn1 [Example 191, (E)-3-(6-aminopyridin-3-yl)-N-(2-((1R,5S,6s)-3-(naphthalen-1-yl)-3-azabicyclo[3.1.0]hexan-6-yl)ethyl)acrylamide] | 0.01 to 0.49 µM
O=C(NCC[C@@H]1[C@H]2CN(C(=O)NC3CCOCC3)C[C@@H]12)c1cc2ccncc2o1 [Example 59, N-(2-((1R,5S,6s)-3-((tetrahydro-2H-pyran-4-yl)carbamoyl)-3-azabicyclo[3.1.0]hexan-6-yl)ethyl)furo[2,3-c]pyridine-2-carboxamide] | 0.5 to 0.99 µM
Nc1ccc(/C=C/C(=O)NCC[C@@H]2[C@H]3CN(C(=O)c4ccc(F)cc4)C[C@@H]23)cn1 [Example 86, (E)-3-(6-aminopyridin-3-yl)-N-(2-((1R,5S,6s)-3-(4-fluorobenzoyl)-3-azabicyclo[3.1.0]hexan-6-yl)ethyl)acrylamide] | 0.01 to 0.49 µM
O=C(NCC[C@@H]1[C@H]2CN(C(=O)CC3CCOCC3)C[C@@H]12)c1cnc2nccn2c1 [Example 106, N-(2-((1R,5S,6s)-3-(2-(tetrahydro-2H-pyran-4-yl)acetyl)-3-azabicyclo[3.1.0]hexan-6-yl)ethyl)imidazo[1,2-a]pyrimidine-6-carboxamide] | 0.01 to 0.49 µM
CC1(OC(=O)N2C[C@@H]3[C@@H](CCNC(=O)/C=C/c4cccnc4)[C@@H]3C2)COC1 [Example 21, (1R,5S,6s)-3-methyloxetan-3-yl 6-(2-((E)-3-(pyridin-3-yl)acrylamido)ethyl)-3-azabicyclo[3.1.0]hexane-3-carboxylate] | 0.01 to 0.49 µM
CC(C)(C)OC(=O)N1C[C@@H]2[C@H](C1)[C@H]2C(F)CNC(=O)/C=C/c1ccc(N)nc1 (stereo partly drawn) [Example 254, (1R,5S,6r)-tert-butyl 6-(2-((E)-3-(6-aminopyridin-3-yl)acrylamido)-1-fluoroethyl)-3-azabicyclo[3.1.0]hexane-3-carboxylate] | 0.01 to 0.49 µM
O=C(NCC[C@@H]1[C@H]2CN(S(=O)(=O)C3CCOCC3)C[C@@H]12)c1cc2cnccc2[nH]1 [Example 84, N-(2-((1R,5S,6s)-3-((tetrahydro-2H-pyran-4-yl)sulfonyl)-3-azabicyclo[3.1.0]hexan-6-yl)ethyl)-1H-pyrrolo[3,2-c]pyridine-2-carboxamide] | 0.5 to 0.99 µM

Same assay, conditions: [HDB]; read-out: NAMPT IC50 (μM) [HDB]

Compound | IC50
CC(C)N1C[C@@H]2[C@@H](CCNC(=O)/C=C/c3cccnc3)[C@@H]2C1 [Example 245, (E)-N-(2-((1R,5S,6s)-3-isopropyl-3-azabicyclo[3.1.0]hexan-6-yl)ethyl)-3-(pyridin-3-yl)acrylamide] | 1 to 29 µM
O=C(NCC[C@@H]1[C@H]2CN(c3nc(Cl)ncc3F)C[C@@H]12)N1Cc2cccnc2C1 [Example 227, N-(2-((1R,5S,6s)-3-(2-chloro-5-fluoropyrimidin-4-yl)-3-azabicyclo[3.1.0]hexan-6-yl)ethyl)-5H-pyrrolo[3,4-b]pyridine-6(7H)-carboxamide] | 0.01 to 0.49 µM
CC(C)(C)OC(=O)N1C[C@@H]2[C@H](C1)[C@@]2(F)CCNC(=O)/C=C/c1cccnc1 [Example 291, (1R,5S,6r)-tert-butyl 6-fluoro-6-(2-((E)-3-(pyridin-3-yl)acrylamido)ethyl)-3-azabicyclo[3.1.0]hexane-3-carboxylate] | 0.01 to 0.49 µM
N#Cc1ccccc1N1C[C@@H]2[C@@H](CCNC(=O)/C=C/c3cccnc3)[C@@H]2C1 [Example 135, (E)-N-(2-((1R,5S,6s)-3-(2-cyanophenyl)-3-azabicyclo[3.1.0]hexan-6-yl)ethyl)-3-(pyridin-3-yl)acrylamide] | 0.01 to 0.49 µM
CN(C)CCOc1ncc(F)c(N2C[C@@H]3[C@@H](CCNC(=O)/C=C/c4cccnc4)[C@@H]3C2)n1 [Example 311, (E)-N-(2-((1R,5S,6s)-3-(2-(2-(dimethylamino)ethoxy)-5-fluoropyrimidin-4-yl)-3-azabicyclo[3.1.0]hexan-6-yl)ethyl)-3-(pyridin-3-yl)acrylamide] | < 0.01 µM
COc1ncc(F)c(N2C[C@@H]3[C@@H](CCNC(=O)/C=C/c4cncc(F)c4)[C@@H]3C2)n1 [Example 330, (E)-N-(2-((1R,5S,6s)-3-(5-fluoro-2-methoxypyrimidin-4-yl)-3-azabicyclo[3.1.0]hexan-6-yl)ethyl)-3-(5-fluoropyridin-3-yl)acrylamide] | 0.01 to 0.49 µM
O=C(NCC[C@@H]1[C@H]2CN(c3nc(Cl)ncc3F)C[C@@H]12)c1cc(-c2cccnc2)on1 [Example 208, N-(2-((1R,5S,6s)-3-(2-chloro-5-fluoropyrimidin-4-yl)-3-azabicyclo[3.1.0]hexan-6-yl)ethyl)-5-(pyridin-3-yl)isoxazole-3-carboxamide] | < 0.01 µM
CCN(CC)C(=O)COc1ncc(F)c(N2C[C@@H]3[C@@H](CCNC(=O)/C=C/c4cccnc4)[C@@H]3C2)n1 [Example 329, (E)-N-(2-((1R,5S,6s)-3-(2-(2-(diethylamino)-2-oxoethoxy)-5-fluoropyrimidin-4-yl)-3-azabicyclo[3.1.0]hexan-6-yl)ethyl)-3-(pyridin-3-yl)acrylamide] | 0.01 to 0.49 µM
O=C(/C=C/c1cccnc1)NCC[C@@H]1[C@H]2CN(c3ccnc4ccccc34)C[C@@H]12 [Example 143, (E)-3-(pyridin-3-yl)-N-(2-((1R,5S,6s)-3-(quinolin-4-yl)-3-azabicyclo[3.1.0]hexan-6-yl)ethyl)acrylamide] | 0.01 to 0.49 µM
O=C(NCC[C@@H]1[C@H]2CN(c3nc(Cl)ncc3F)C[C@@H]12)c1cnc2nccn2c1 [Example 213, N-(2-((1R,5S,6s)-3-(2-chloro-5-fluoropyrimidin-4-yl)-3-azabicyclo[3.1.0]hexan-6-yl)ethyl)imidazo[1,2-a]pyrimidine-6-carboxamide] | 0.01 to 0.49 µM
O=C(/C=C/c1cccnc1)NCC[C@@H]1[C@H]2CN(c3ncncn3)C[C@@H]12 [Example 170, (E)-N-(2-((1R,5S,6s)-3-(1,3,5-triazin-2-yl)-3-azabicyclo[3.1.0]hexan-6-yl)ethyl)-3-(pyridin-3-yl)acrylamide] | 0.01 to 0.49 µM
O=C(NCC[C@@H]1[C@H]2CN(c3ncccn3)C[C@@H]12)c1cc2ccncc2s1 [Example 200, N-(2-((1R,5S,6s)-3-(pyrimidin-2-yl)-3-azabicyclo[3.1.0]hexan-6-yl)ethyl)thieno[2,3-c]pyridine-2-carboxamide] | 0.01 to 0.49 µM
CC(c1ccncc1)N1C[C@@H]2[C@@H](CCNC(=O)/C=C/c3cccnc3)[C@@H]2C1 (stereo partly drawn) [Example 319, (E)-3-(pyridin-3-yl)-N-(2-((1R,5S,6s)-3-(1-(pyridin-4-yl)ethyl)-3-azabicyclo[3.1.0]hexan-6-yl)ethyl)acrylamide] | < 0.01 µM
O=C(/C=C/c1cccnc1)NCC[C@@H]1[C@H]2CN(c3ccc(C(F)(F)F)cc3)C[C@@H]12 [Example 139, (E)-3-(pyridin-3-yl)-N-(2-((1R,5S,6s)-3-(4-(trifluoromethyl)phenyl)-3-azabicyclo[3.1.0]hexan-6-yl)ethyl)acrylamide] | 0.01 to 0.49 µM
O=C(/C=C/c1cccnc1)NCC[C@@H]1[C@H]2CN(CCc3ccccc3)C[C@@H]12 [Example 295, (E)-N-(2-((1R,5S,6s)-3-phenethyl-3-azabicyclo[3.1.0]hexan-6-yl)ethyl)-3-(pyridin-3-yl)acrylamide] | 0.01 to 0.49 µM
CC(c1ccccc1)N1C[C@@H]2[C@@H](CCNC(=O)/C=C/c3cccnc3)[C@@H]2C1 (stereo partly drawn) [Example 249, (E)-N-(2-((1R,5S,6s)-3-(1-phenylethyl)-3-azabicyclo[3.1.0]hexan-6-yl)ethyl)-3-(pyridin-3-yl)acrylamide] | 0.01 to 0.49 µM
